What was measured:
Format in all cases: cell-based
PTGER4 (EP4) = molecular target: T1, PTGER4 (EP4) (Homo sapiens, UniProt P35408); assay: hEP4 b-Arrestin Assay (PathHunter HEK 293 PTGER4 b-arrestin cells, PGE2 20 nM); conditions: antagonistic activity, beta-arrestin assay, HEK 293 PTGER4 cells, PGE2 20 nM (EC80); read-out: hEP4 b-arr IC50
T1 construct: host or cells: HEK 293 (PathHunter, stably transfected)
How it was run: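 PathHunter HEK 293 EP4 b-arrestin enzyme-complementation cells preincubated 15 min at 37° C with compound (10 μM-2 nM or 1 μM-0.2 nM), then stimulated 120 min with 20 nM PGE2 (EC80). Chemiluminescence read; IC50 from duplicate % activity vs DMSO, one-site fit, averaged over repeats.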

EP4 = molecular target: T2, EP4 (Homo sapiens, UniProt P35408); assay: hEP4 cAMP Assay (BT549 breast cancer cells, HTRF cAMP, PGE2 6 nM); conditions: antagonistic activity, PGE2 6 nM (EC80)
T2 construct: BT549 breast cancer cells, express high endogenous EP4 levels and very low EP2 levels; host or cells: BT549 breast cancer cells
T2 sequence (P35408 whole entry): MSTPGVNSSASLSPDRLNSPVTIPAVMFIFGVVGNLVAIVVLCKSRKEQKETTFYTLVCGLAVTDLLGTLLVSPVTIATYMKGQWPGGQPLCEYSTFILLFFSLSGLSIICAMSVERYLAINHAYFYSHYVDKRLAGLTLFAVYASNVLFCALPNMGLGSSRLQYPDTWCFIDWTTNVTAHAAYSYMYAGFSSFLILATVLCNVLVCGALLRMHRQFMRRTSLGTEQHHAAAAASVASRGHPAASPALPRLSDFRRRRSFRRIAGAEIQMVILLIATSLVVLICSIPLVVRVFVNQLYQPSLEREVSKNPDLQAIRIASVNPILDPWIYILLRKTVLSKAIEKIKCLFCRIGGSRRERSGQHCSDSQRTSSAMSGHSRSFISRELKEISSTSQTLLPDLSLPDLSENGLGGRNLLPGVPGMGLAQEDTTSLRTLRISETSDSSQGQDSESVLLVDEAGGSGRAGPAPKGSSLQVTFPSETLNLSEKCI
How it was run: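 Antagonism is measured as inhibition of PGE2 (6 nM final, EC80) cAMP accumulation in EP4-expressing BT549 breast cancer cells, after a 45 min room-temperature compound pre-incubation and 30 min agonist step, with 2 mM IBMX present. HTRF ratio gives cAMP relative to DMSO; IC50 fitted, means over repeat runs.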

PTGER2 (EP2) = molecular target: T3, PTGER2 (EP2) (Homo sapiens, UniProt P43116); assay: hEP2 b-Arrestin Assay (PathHunter HEK 293 PTGER2 b-arrestin cells, PGE2 5 μM); conditions: antagonistic activity, beta-arrestin assay, HEK 293 PTGER2 cells, PGE2 5 μM (EC80); read-out: hEP2 b-arr IC50
T3 construct: host or cells: HEK 293 (PathHunter, stably transfected)
T3 sequence (P43116 whole entry): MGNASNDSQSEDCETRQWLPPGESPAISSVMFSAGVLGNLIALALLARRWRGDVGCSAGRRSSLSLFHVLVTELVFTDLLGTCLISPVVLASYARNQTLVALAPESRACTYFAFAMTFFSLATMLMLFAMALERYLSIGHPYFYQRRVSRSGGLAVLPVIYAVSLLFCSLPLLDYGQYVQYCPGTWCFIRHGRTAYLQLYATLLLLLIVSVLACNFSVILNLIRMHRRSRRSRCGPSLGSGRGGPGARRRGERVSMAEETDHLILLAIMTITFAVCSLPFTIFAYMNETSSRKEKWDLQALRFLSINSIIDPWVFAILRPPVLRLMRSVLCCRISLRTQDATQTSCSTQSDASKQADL
How it was run: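 PathHunter enzyme-fragment complementation in HEK 293 cells: compounds (10 μM-2 nM or 1 μM-0.2 nM) pre-incubated 15 min at 37 °C, then 5 μM PGE2 (EC80) for 120 min at 37 °C. Chemiluminescence read after 1 h detection; IC50 from duplicate dose-response fits, means of repeats.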

EP2 = molecular target: T4, EP2 (Homo sapiens, UniProt P43116); assay: hEP2 cAMP Assay (SF295 glioblastoma cells, HTRF cAMP, PGE2 75 nM); conditions: antagonistic activity, PGE2 75 nM (EC80)
T4 construct: SF295 glioblastoma cells express high endogenous EP2 and no EP4; host or cells: SF295 glioblastoma cells
T4 sequence (P43116 whole entry): as above
How it was run: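 IC50 values derive from duplicate-point curves of percent cAMP relative to DMSO, read by HTRF (665/620 nm) against a cAMP calibrator. Compounds (30 μM to 0.01 nM ranges) were given 45 min at room temperature before 30 min with 75 nM PGE2, in EP2-only SF295 cells with 2 mM IBMX.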

T1 sequence (P35408 whole entry): as the sequence (P35408 whole entry) above

SMILES | IC50 (PTGER4 (EP4)) | IC50 (EP4) | IC50 (PTGER2 (EP2)) | IC50 (EP2)
CCOc1cc(-c2cc(NCCc3c(OC)ccc4ccccc34)ncn2)sc1C(=O)NS(N)(=O)=O [Example 135, 3-Ethoxy-5-(6-((2-(2-methoxynaphthalen-1-yl)ethyl)amino)pyrimidin-4-yl)-N-sulfamoylthiophene-2-carboxamide] | 23 nM | 67 nM | 5 nM | 3 nM
CCOc1cc(-c2cc(NCCc3c(OC)ccc4ccccc34)ncn2)sc1C(=O)NS(C)(=O)=O [Example 136, N-(3-Ethoxy-5-{6-[2-(2-methoxy-naphthalen-1-yl)-ethylamino]-pyrimidin-4-yl}-thiophene-2-carbonyl)-methanesulfonamide] | 24 nM | 86 nM | 3 nM | 10 nM
CCOc1cc(-c2cc(NCCc3cccc4[nH]ccc34)ncn2)sc1-c1noc(=O)[nH]1 [Example 137, 3-(3-Ethoxy-5-{6-[2-(1H-indol-4-yl)-ethylamino]-pyrimidin-4-yl}-thiophen-2-yl)-[1,2,4]oxadiazol-5(4H)-one] | 37 nM | 37 nM | 16 nM | 37 nM
CCOc1cc(-c2cc(NCCc3c(OC)ccc4ccccc34)ncn2)sc1-c1noc(=O)[nH]1 [Example 138, 3-(3-Ethoxy-5-{6-[2-(2-methoxy-naphthalen-1-yl)-ethylamino]-pyrimidin-4-yl}-thiophen-2-yl)-[1,2,4]oxadiazol-5(4H)-one] | 4 nM | 8 nM | 3 nM | 6 nM
CCOc1cc(-c2cc(NCCc3cccc4ccncc34)ncn2)sc1-c1noc(=O)[nH]1 [Example 139, 3-{3-Ethoxy-5-[6-(2-isoquinolin-8-yl-ethylamino)-pyrimidin-4-yl]-thiophen-2-yl}-[1,2,4]oxadiazol-5(4H)-one] | 48 nM | 28 nM | 186 nM | 526 nM
CCOc1cc(-c2cc(NCCc3cccc4cccnc34)ncn2)sc1-c1noc(=O)[nH]1 [Example 140, 3-{3-Ethoxy-5-[6-(2-quinolin-8-yl-ethylamino)-pyrimidin-4-yl]-thiophen-2-yl}-[1,2,4]oxadiazol-5(4H)-one] | 15 nM | 17 nM | 119 nM | 142 nM
CCOc1cc(-c2cc(NCCc3ccc(OC)c4ccccc34)ncn2)sc1-c1noc(=O)[nH]1 [Example 141, 3-(3-Ethoxy-5-{6-[2-(4-methoxy-naphthalen-1-yl)-ethylamino]-pyrimidin-4-yl}-thiophen-2-yl)-[1,2,4]oxadiazol-5(4H)-one] | 4 nM | 17 nM | 61 nM | 72 nM
CCOc1cc(-c2cc(NCCc3c(OC)ccc4ncccc34)ncn2)sc1-c1noc(=O)[nH]1 [Example 142, 3-(3-Ethoxy-5-{6-[2-(6-methoxy-quinolin-5-yl)-ethylamino]-pyrimidin-4-yl}-thiophen-2-yl)-[1,2,4]oxadiazol-5(4H)-one] | 10 nM | 27 nM | 7 nM | 40 nM
CCOc1cc(-c2cc(NCCc3cccc4cc[nH]c34)ncn2)sc1-c1noc(=O)[nH]1 [Example 143, 3-(3-Ethoxy-5-{6-[2-(1H-indol-7-yl)-ethylamino]-pyrimidin-4-yl}-thiophen-2-yl)-[1,2,4]oxadiazol-5(4H)-one] | 21 nM | 105 nM | 31 nM | 90 nM
CCOc1cc(-c2cc(NCCc3cccc4cnccc34)ncn2)sc1-c1noc(=O)[nH]1 [Example 144, 3-{3-Ethoxy-5-[6-(2-isoquinolin-5-yl-ethylamino)-pyrimidin-4-yl]-thiophen-2-yl}-[1,2,4]oxadiazol-5(4H)-one] | 20 nM | 40 nM | 30 nM | 71 nM
CCOc1cc(-c2cc(NCCc3c(OC)ccc4ncccc34)ncn2)sc1-c1nnn[nH]1 [Example 145, {6-[4-Ethoxy-5-(1H-tetrazol-5-yl)-thiophen-2-yl]-pyrimidin-4-yl}-[2-(6-methoxy-quinolin-5-yl)-ethyl]-amine] | 18 nM | 53 nM | 16 nM | 81 nM
CCOc1nc(-c2cc(NCCc3c(OC)ccc4ccccc34)ncn2)sc1C(=O)O [Example 147, 4-Ethoxy-2-{6-[2-(2-methoxy-naphthalen-1-yl)-ethylamino]-pyrimidin-4-yl}-thiazole-5-carboxylic Acid] | 40 nM | 44 nM | 7 nM | 10 nM
CCc1nc(-c2cc(NCCc3c(OC)ccc4ccccc34)ncn2)sc1C(=O)O [Example 148, 4-Ethyl-2-{6-[2-(2-methoxy-naphthalen-1-yl)-ethylamino]-pyrimidin-4-yl}-thiazole-5-carboxylic Acid] | 264 nM | 548 nM | 20 nM | 27 nM
CCOc1nc(-c2cc(NCCc3c(OC)ccc4ccccc34)ncn2)sc1-c1noc(=O)[nH]1 [Example 149, 3-(4-Ethoxy-2-{6-[2-(2-methoxy-naphthalen-1-yl)-ethylamino]-pyrimidin-4-yl}-thiazol-5-yl)-[1,2,4]oxadiazol-5(4H)-one] | 6 nM | 52 nM | 5 nM | 15 nM
COc1ccc2ccc(F)c(CCNc3cc(-c4cc(C(F)(F)F)c(C(=O)O)s4)ncn3)c2n1 [Example 151, 5-{6-[2-(7-Fluoro-2-methoxy-quinolin-8-yl)-ethylamino]-pyrimidin-4-yl}-3-trifluoromethyl-thiophene-2-carboxylic acid] | 478 nM | 228 nM | 414 nM | 214 nM
COc1ccc2c(c1CCNc1cc(-c3cc(C(F)(F)F)c(C(=O)O)s3)ncn1)CCCN2C [Example 154, 5-{6-[2-(6-Methoxy-1-methyl-1,2,3,4-tetrahydro-quinolin-5-yl)-ethylamino]-pyrimidin-4-yl}-3-trifluoromethyl-thiophene-2-carboxylic Acid] | 125 nM | 177 nM | 57 nM | 144 nM
COc1ccc2ccccc2c1CCNc1cc(-c2ccc(C(=O)O)c(OCCO)c2)ncn1 [Example 155, 2-(2-Hydroxy-ethoxy)-4-{6-[2-(2-methoxy-naphthalen-1-yl)-ethylamino]-pyrimidin-4-yl}-benzoic acid] | 2230 nM | 296 nM | 45 nM | 16 nM
COc1ccc2ccccc2c1CCNc1cc(-c2cc(OCCN(C)C)c(C(=O)O)s2)ncn1 [Example 157, 3-(2-Dimethylamino-ethoxy)-5-{6-[2-(2-methoxy-naphthalen-1-yl)-ethylamino]-pyrimidin-4-yl}-thiophene-2-carboxylic Acid] | 1910 nM | 1040 nM | 43 nM | 143 nM
CCOc1cc(-c2cc(NCCc3c(C#N)ccc4c(OC)ccc(F)c34)ncn2)sc1C(=O)O [Example 158, 5-{6-[2-(2-Cyano-8-fluoro-5-methoxy-naphthalen-1-yl)-ethylamino]-pyrimidin-4-yl}-3-ethoxy-thiophene-2-carboxylic acid] | 3 nM | 3 nM | 126 nM | 286 nM
Cn1ccc2c(CCNc3cc(-c4ccc(C(=O)O)c(OC5CCC5)c4)ncn3)cccc21 [Example 159, 2-Cyclobutoxy-4-{6-[2-(1-methyl-1H-indol-4-yl)-ethylamino]-pyrimidin-4-yl}-benzoic acid] | 864 nM | 1050 nM | 44 nM | 110 nM
CCOc1cc(-c2cc(NCCc3c(OC)ccc4ccccc34)ncn2)ccc1CC(=O)O [Example 160, (2-Ethoxy-4-{6-[2-(2-methoxy-naphthalen-1-yl)-ethylamino]-pyrimidin-4-yl}-phenyl)-acetic acid] | 667 nM | 252 nM | 24 nM | 79 nM
CCOc1cc(-c2cc(NCCc3cccc4c(F)cccc34)ncn2)ccc1CC(=O)O [Example 163, (2-Ethoxy-4-{6-[2-(5-fluoro-naphthalen-1-yl)-ethylamino]-pyrimidin-4-yl}-phenyl)-acetic acid] | 294 nM | 180 nM | 80 nM | 202 nM
CCOc1cc(-c2cc(NCCc3cccc4c(C)cccc34)ncn2)ccc1CC(=O)O [Example 164, (2-Ethoxy-4-{6-[2-(5-methyl-naphthalen-1-yl)-ethylamino]-pyrimidin-4-yl}-phenyl)-acetic acid] | 181 nM | 110 nM | 44 nM | 130 nM

— patent US11446298B2, “Pyrimidine derivatives” (Idorsia Pharmaceuticals Ltd, priority 2017, dated 2022)
